Blank lines part the entries; values can stand above or below the compound they belong to.
Tests used:
[1] = biological target: T1, OPRK1 (Homo sapiens, UniProt P41145); test: NanoBRET screen HiBiT-OPRK1 in HEK293; type: binding
T1 construct: purchased Promega (in-house HiBiT-GPCR construct library, NanoBRET)
Experimental: (§1) Each tracer candidate was screened across the entire library of HiBiT-GPCR constructs using NanoBRET as the detection modality. As depicted in Figure 4A, the specificity of interactions was evaluated through decrease in BRET due to competitive displacement of a bound tracer by excess parental compound. Each tracer was analyzed for binding to each HiBiT-GPCR fusion in the absence and in the presence of competing parental compound. Briefly, HEK293 cells were transfected with HiBiT-GPCR constructs diluted into promoterless DNA to reduce expression and maximize translocation to the cell surface. Each tracer candidate was then screened at concentrations of 1 μM and 0.1 μM across cells expressing these fusions. Cells were treated for 1.5 h with tracer either alone or in the presence of 20 μM competing parental compound (i.e., control). BRET was measured upon addition of purified LgBiT and subsequent complementation with HiBiT genetically fused to a GPCR. The specificity of interactions was assessed through a decrease in BRET signal due to competitive displacement of the bound tracer. To further gauge the robustness of these interactions, the fold response over the control (i.e., BRETtracer/BRETcontrol) was calculated. We chose a 1.5-fold response, which translates to ≥7-fold signal over noise as the minimal threshold required to score an interaction as positive. […]. Below we highlight the screening results obtained for our exemplary fluorescent tracers based on Clozapine, Amitriptyline and AZD1283.
(§2) HiBiT-GPCR DNA constructs were diluted in 10 mM Tris pH 8 to a final concentration of 0.01 μg/μL, arrayed in 96-well plates and stored at −20 °C. For transfection, HEK293 cells were suspended in Opti-MEM (without phenol red) supplemented with 2% fetal bovine serum (Seradigm) and 100 units/mL penicillin–streptomycin (Gibco) at a final concentration of 220,000 cells/mL and dispensed into white 96-well plates at 90 μL/well. Subsequent transfections and screens were carried using an Agilent Bravo Automated Liquid Handling Platform. First, the 96-well HiBiT DNA arrays were diluted 25-fold in Opti-MEM (without serum or phenol red) to a final concentration of 0.0004 μg/μL and 20 μL of the diluted DNAs were transferred into new 96-well plates. Next, promoterless carrier DNA (1 μg/μL) was diluted 25-fold (0.04 μg/μL) and then dispensed into the diluted arrays at 20 μL/well. Following brief mixing, Viafect transfection reagent (Promega) diluted 16-fold into Opti-MEM was dispensed into the plates at 40 μL/well. After mixing by pipetting, plates were incubated for 10 min on the pipetting station deck. The DNA-transfection reagent complexes were then added to plates containing cells. To facilitate the screen, 10 μL of DNA-transfection reagent complexes were added in duplicates to the top 4 and bottom 4 rows, resulting in two identical 48-well arrays per plate. Plates with transfected cells were incubated for 18–20 h at 37 °C/5% CO2. A screen of each tracer across the entire library using two different concentrations requires duplicate plates of transfected cells. Depending on the number of tracers being screened, transfections can be scaled up using the same ratios. The next day, for each tracer, four 20× screening solutions in tracer dilution buffer (Promega) were prepared: two duplicates at final concentration of 20 μM and two duplicates at a final concentration of 2 μM. A competing unmodified compound was added to one of each duplicate at a final concentration of 400 μM. The four resulting solutions were diluted 4-fold in Opti-MEM without serum or phenol red to generate 5× solutions (5 µM and 0.5 µM tracer +/− 100 μM competing compound). To screen the library, a BioTek MultiFlo FX liquid dispenser was used to dispense 22.5 µL of tracer solution to the top 4 rows and 22.5 µL tracer + competing compound solution to the 4 bottom rows. Plates were briefly mixed on an orbital shaker and incubated for 1.5 h at room temperature. […]

[2] = biological target: T2, OPRL1 (Homo sapiens, UniProt P41146); test: NanoBRET screen HiBiT-OPRL1 in HEK293; type: binding
T2 construct: purchased Promega (in-house HiBiT-GPCR construct library, NanoBRET)
T2 sequence (P41146 whole entry): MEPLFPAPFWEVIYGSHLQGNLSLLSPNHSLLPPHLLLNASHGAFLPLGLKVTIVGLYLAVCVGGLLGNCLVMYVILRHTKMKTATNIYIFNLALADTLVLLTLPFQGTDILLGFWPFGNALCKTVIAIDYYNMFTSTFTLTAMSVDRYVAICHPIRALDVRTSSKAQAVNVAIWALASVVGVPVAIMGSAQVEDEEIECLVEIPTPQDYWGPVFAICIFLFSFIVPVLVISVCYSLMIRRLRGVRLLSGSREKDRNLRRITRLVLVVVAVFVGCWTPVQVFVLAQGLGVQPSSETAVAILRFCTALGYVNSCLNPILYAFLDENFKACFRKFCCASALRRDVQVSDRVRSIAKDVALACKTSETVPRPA
Experimental: as §1, §2

[3] = tracer at 0.1μM, listed as amitriptyline-b-2-NB590
[4] = tracer at 1μM, listed as amitriptyline-b-2-NB590

T1 sequence (P41145 whole entry): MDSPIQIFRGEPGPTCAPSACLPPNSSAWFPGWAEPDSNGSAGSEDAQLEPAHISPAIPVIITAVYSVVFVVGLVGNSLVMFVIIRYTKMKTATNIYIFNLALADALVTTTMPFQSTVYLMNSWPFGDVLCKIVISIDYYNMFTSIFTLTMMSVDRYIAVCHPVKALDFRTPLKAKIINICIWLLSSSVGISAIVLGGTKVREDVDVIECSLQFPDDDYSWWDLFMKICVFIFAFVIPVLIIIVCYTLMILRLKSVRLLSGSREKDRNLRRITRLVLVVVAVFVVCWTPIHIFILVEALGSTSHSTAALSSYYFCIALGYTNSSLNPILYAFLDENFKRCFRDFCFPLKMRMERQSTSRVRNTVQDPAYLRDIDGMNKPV

NanoBRET Fold Response ([1]; OPRK1, 0.1μM): 0.98
NanoBRET Fold Response ([1]; OPRK1, 1μM): 0.99
NanoBRET Fold Response ([2]; OPRL1, 0.1μM): 0.98
NanoBRET Fold Response ([2]; OPRL1, 1μM): 1.15
SMILES: CCOC(=O)c1cc(C#N)c(N2CCC(C(=O)NS(=O)(=O)Cc3ccccc3/C=C/C(=O)NCCNC(=O)CCc3ccc4n3[B-](F)(F)[N+]3=C(c5ccc[nH]5)C=CC3=C4)CC2)nc1C [AZD1283-1-NB590]

NanoBRET Fold Response ([1]; OPRK1, other tracers/Aminopotentidine (unmodified), 0.1μM): 1.75
NanoBRET Fold Response ([1]; OPRK1, other tracers/Aminopotentidine (unmodified), 1μM): 1.55
SMILES: N#CN/C(=N\CCNC(=O)c1ccc(N)cc1)NCCCOc1cccc(CN2CCCCC2)c1 [Aminopotentidine (unmodified)]

NanoBRET Fold Response ([1]; OPRK1, tracer 0.1μM): 1.14
NanoBRET Fold Response ([1]; OPRK1, tracer 1μM): 1.07
NanoBRET Fold Response ([2]; OPRL1, tracer 0.1μM): 1.05
NanoBRET Fold Response ([2]; OPRL1, tracer 1μM): 1.01
SMILES: N#CN=C(NCCCOc1cccc(CN2CCCCC2)c1)NCCNC(=O)CCOCCOCCOCCOCCNC(=O)CCc1ccc2n1[B-](F)(F)[N+]1=C(c3ccc[nH]3)C=CC1=C2 [Aminopotentidine-2-NB590]

NanoBRET Fold Response ([1]; 0.1μM tracer): 0.96
NanoBRET Fold Response ([1]; 1μM tracer): 0.93
NanoBRET Fold Response ([2]; 0.1μM tracer): 0.71
NanoBRET Fold Response ([2]; 1μM tracer): 1.05
SMILES: COc1ccc2[nH]c(-c3ccc(CNC(=O)CCOCCOCCOCCOCCNC(=O)CCc4ccc5n4[B-](F)(F)[N+]4=C(c6ccc[nH]6)C=CC4=C5)cc3)c(CCNC(C)=O)c2n1 [AzomelatoninICO9-2-NB590]

Further lines, the compound ahead of its results:

SMILES: CN(C)CCC=C1c2ccccc2CCc2ccc(C(=O)NCCNC(=O)CCOCCOCCOCCOCCNC(=O)CCc3ccc4n3[B-](F)(F)[N+]3=C(c5ccc[nH]5)C=CC3=C4)cc21 [Amitriptyline-a-2-NB590]
NanoBRET Fold Response ([1]; tracer at 0.1μM): 1.04
NanoBRET Fold Response ([1]; tracer at 1μM): 1.02
NanoBRET Fold Response ([2]; tracer at 0.1μM): 1.01
NanoBRET Fold Response ([2]; tracer at 1μM): 0.95

SMILES: CN(C)CCC=C1c2ccccc2CCc2ccc(C(=O)NCCNC(=O)CCOCCOCCOCCOCCNC(=O)CCc3ccc4n3[B-](F)(F)[N+]3=C(c5ccc[nH]5)C=CC3=C4)cc21 [Amitriptyline-b-2-NB590]
NanoBRET Fold Response [1, 3]: 1.23
NanoBRET Fold Response [1, 4]: 1.23
NanoBRET Fold Response [2, 3]: 1.14
NanoBRET Fold Response [2, 4]: 1.14

SMILES: CN(CCC=C1c2ccccc2CCc2ccccc21)C(=O)CCOCCOCCOCCOCCNC(=O)CCc1ccc2n1[B-](F)(F)[N+]1=C(c3ccc[nH]3)C=CC1=C2 [Amitriptyline-e-2-NB590]
NanoBRET Fold Response ([1]; tracer at 1μM): 1.05
NanoBRET Fold Response ([2]; tracer at 1μM): 1.10

SMILES: COc1ccc2c(n1)c(CCNC(C)=O)cn2CCNC(=O)CCc1ccc2n1[B-](F)(F)[N+]1=C(c3ccc[nH]3)C=CC1=C2 [Azamelatonin-1-NB590]
NanoBRET Fold Response ([1]; 0.1μM tracer): 0.92
NanoBRET Fold Response ([1]; 1μM tracer): 0.92
NanoBRET Fold Response ([2]; 0.1μM tracer): 1.14
NanoBRET Fold Response ([2]; 1μM tracer): 1.14

SMILES: O=C(CCOCCOCCOCCOCCNC(=O)CCc1ccc2n1[B-](F)(F)[N+]1=C(c3ccc[nH]3)C=CC1=C2)NCCCN1CCN(C2=Nc3cc(Cl)ccc3Nc3ccccc32)CC1 [Clozapine-a-2-NB590]
NanoBRET Fold Response ([1]; OPRK1, 0.1μM tracer): 1.01
NanoBRET Fold Response ([1]; OPRK1, 1μM tracer): 0.97
NanoBRET Fold Response ([2]; OPRL1, 0.1μM tracer): 0.99
NanoBRET Fold Response ([2]; OPRL1, 1μM tracer): 1.05

SMILES: CN1CCN(C2=Nc3cc(Cl)ccc3Nc3ccc(CNC(=O)CCOCCOCCOCCOCCNC(=O)CCc4ccc5n4[B-](F)(F)[N+]4=C(c6ccc[nH]6)C=CC4=C5)cc32)CC1 [Clozapine-b-2-NB590]
NanoBRET Fold Response ([1]; OPRK1, 0.1μM tracer): 0.99
NanoBRET Fold Response ([1]; OPRK1, 1μM tracer): 0.96
NanoBRET Fold Response ([2]; OPRL1, 0.1μM tracer): 1.00
NanoBRET Fold Response ([2]; OPRL1, 1μM tracer): 1.01
